`CCn1cc(C(=O)O)c(=O)c2cc(F)c(N3CCNCC3)cc21` showed a solubility (mole fraction) (in water, 303.2 K) of 7.3e-06, a solubility (mole fraction) (in water, 308.2 K) of 9.1e-06 and a solubility (mole fraction) (in water, 313.2 K) of 1.12e-05. It also gave a solubility (mole fraction) (in water, 318.2 K) of 1.37e-05, a solubility (mole fraction) (in water, 323.2 K) of 1.7e-05 and a solubility (mole fraction) (in water, 328.2 K) of 2.05e-05.
`CCn1nc(C(=O)O)c(=O)c2cc3c(cc21)OCO3` gave a solubility (mole fraction) (in ethanol, 300.2 K) of 5e-05, a solubility (mole fraction) (in ethanol, 303.1 K) of 6e-05 and a solubility (mole fraction) (in ethanol, 311.4 K) of 8e-05. It also gave a solubility (mole fraction) (in ethanol, 315.1 K) of 0.0001, a solubility (mole fraction) (in ethanol, 319.5 K) of 0.00011 and a solubility (mole fraction) (in ethanol, 321.6 K) of 0.00013. It also gave a solubility (mole fraction) (in ethanol, 325.6 K) of 0.00015, a solubility (mole fraction) (in ethanol, 329.1 K) of 0.00018 and a solubility (mole fraction) (in ethanol, 334 K) of 0.0002. For the same compound, the solubility (mole fraction) (in ethanol, 337.2 K) was 0.00024, the solubility (mole fraction) (in ethanol, 339.8 K) was 0.00028 and the solubility (mole fraction) (in ethanol, 342.8 K) was 0.00031. The solubility (mole fraction) (in ethanol, 345.6 K) was 0.00037, the solubility (mole fraction) (in water, 298.2 K) was 4.2e-06 and the solubility (mole fraction) (in water, 303.2 K) was 5e-06. For the same compound, the solubility (mole fraction) (in water, 308.2 K) was 5.4e-06, the solubility (mole fraction) (in water, 313.2 K) was 5.9e-06 and the solubility (mole fraction) (in water, 318.2 K) was 7.1e-06. It also gave a solubility (mole fraction) (in water, 323.2 K) of 9.9e-06.
`CCn1cc(C(=O)O)c(=O)c2cc(F)c(N3CCNC(C)C3)c(F)c21.Cl` (stereo not given) gave a solubility (mole fraction) (in ethanol, 298.2 K) of 3e-05, a solubility (mole fraction) (in ethanol, 303.2 K) of 3.2e-05 and a solubility (mole fraction) (in ethanol, 308.2 K) of 3.8e-05. The solubility (mole fraction) (in ethanol, 313.2 K) was 4.1e-05, the solubility (mole fraction) (in ethanol, 318.2 K) was 4.4e-05 and the solubility (mole fraction) (in ethanol, 323.2 K) was 5e-05. For the same compound, the solubility (mole fraction) (in water, 296 K) was 0.00088, the solubility (mole fraction) (in water, 298.2 K) was 0.0009 and the solubility (mole fraction) (in water, 311.7 K) was 0.00099. The solubility (mole fraction) (in water, 316.3 K) was 0.00104, the solubility (mole fraction) (in water, 318.9 K) was 0.0011 and the solubility (mole fraction) (in water, 320.5 K) was 0.00112. It also gave a solubility (mole fraction) (in water, 328.3 K) of 0.00121, a solubility (mole fraction) (in water, 335.9 K) of 0.00129 and a solubility (mole fraction) (in water, 338.7 K) of 0.00134. It also gave a solubility (mole fraction) (in water, 340.7 K) of 0.00138 and a solubility (mole fraction) (in water, 344.2 K) of 0.00145.
`CC1CCc2cc(F)cc3c(=O)c(C(=O)O)cn1c23` (stereo not given) showed a solubility (mole fraction) (in ethanol, 301.9 K) of 0.00015, a solubility (mole fraction) (in ethanol, 309.9 K) of 0.00017 and a solubility (mole fraction) (in ethanol, 315.2 K) of 0.00023. It also gave a solubility (mole fraction) (in ethanol, 320.7 K) of 0.00034, a solubility (mole fraction) (in ethanol, 328.7 K) of 0.00053 and a solubility (mole fraction) (in ethanol, 331.7 K) of 0.00062. The solubility (mole fraction) (in ethanol, 335.5 K) was 0.00075, the solubility (mole fraction) (in ethanol, 339.1 K) was 0.00085 and the solubility (mole fraction) (in ethanol, 340.5 K) was 0.00091. For the same compound, the solubility (mole fraction) (in ethanol, 342.1 K) was 0.00096, the solubility (mole fraction) (in ethanol, 344.2 K) was 0.00114 and the solubility (mole fraction) (in ethanol, 345.5 K) was 0.0012. For the same compound, the solubility (mole fraction) (in water, 298.2 K) was 2.1e-05, the solubility (mole fraction) (in water, 303.2 K) was 2.3e-05 and the solubility (mole fraction) (in water, 308.2 K) was 2.6e-05. For the same compound, the solubility (mole fraction) (in water, 313.2 K) was 2.8e-05, the solubility (mole fraction) (in water, 318.2 K) was 3.2e-05 and the solubility (mole fraction) (in water, 323.2 K) was 3.8e-05.

From BigSolDB 2.1
